Series [1] has as its system Hepatotoxicity. Nature of the series: Literature-mined compound from Fourches et al multi-species drug-induced liver injury (DILI) dataset, effect in humans. The note with it: human.
In series [2] the test system is Hepatotoxicity. Nature of the series: Literature-mined compound from Fourches et al multi-species drug-induced liver injury (DILI) dataset, effect in rodents. The note with it: rodentia.
Series [3] relates to Hepatotoxicity. Nature of the series: Literature-mined compound from Fourches et al multi-species drug-induced liver injury (DILI) dataset, effect in non-rodents.

For `Cc1ccc(C)c(OCCCC(C)(C)C(=O)O)c1` [GEMFIBROZIL], the Hepatotoxicity result in the series with Hepatotoxicity [1] was “drug-induced liver injury reported”; in the series with Hepatotoxicity [2], “drug-induced liver injury reported”; in the series with Hepatotoxicity [3], “no drug-induced liver injury reported”.

As to `CN(C)c1ccc(C(=C2C=CC(=[N+](C)C)C=C2)c2ccc(N(C)C)cc2)cc1.[Cl-]` [GENTIAN VIOLET], the Hepatotoxicity entry with Hepatotoxicity [1] is reported as “no drug-induced liver injury reported”; in the series on Hepatotoxicity [2], “drug-induced liver injury reported”; in the series on Hepatotoxicity [3], “no drug-induced liver injury reported”.

On to `CC1(C)CC(=O)N(CCCCN2CCN(c3ncccn3)CC2)C(=O)C1` [GEPIRONE], for which the Hepatotoxicity result is on record as “drug-induced liver injury reported” in the series with Hepatotoxicity [1], “no drug-induced liver injury reported” in the series with Hepatotoxicity [2] and “no drug-induced liver injury reported” with Hepatotoxicity [3].

As for `C#C[C@]1(O)C=C[C@H]2[C@@H]3CCC4=CC(=O)CC[C@@H]4[C@H]3CC[C@@]21CC` [GESTODENE], the Hepatotoxicity result is “drug-induced liver injury reported” in the series on Hepatotoxicity [1], “no drug-induced liver injury reported” with Hepatotoxicity [2] and “no drug-induced liver injury reported” in the series with Hepatotoxicity [3].

Regarding `O=C(OCC(O)CO)c1ccccc1Nc1ccnc2cc(Cl)ccc12` (centres undefined) [GLAFENINE], the Hepatotoxicity result in the series on Hepatotoxicity [1] (Liver) was “drug-induced liver injury reported”; with Hepatotoxicity [2] (Liver), “no drug-induced liver injury reported”; in the series with Hepatotoxicity [3] (Liver), “no drug-induced liver injury reported”.

As for `Cc1ccc(S(=O)(=O)NC(=O)NN2CC3CCCC3C2)cc1` (centres undefined) [GLICLAZIDE], the Hepatotoxicity result in the series with Hepatotoxicity [1] was “drug-induced liver injury reported”; in the series on Hepatotoxicity [2], “no drug-induced liver injury reported”; in the series on Hepatotoxicity [3], “no drug-induced liver injury reported”.

Turning to `N[C@H]1C(O)O[C@H](CO)[C@@H](O)[C@@H]1O` (some centres undefined) [GLUCOSAMINE], the results for the Hepatotoxicity entry in the series with Hepatotoxicity [1], in the series with Hepatotoxicity [2] and with Hepatotoxicity [3] were “no drug-induced liver injury reported”, “drug-induced liver injury reported” and “no drug-induced liver injury reported”, respectively.

Consider `N[C@@H](CCC(=O)O)C(=O)O` [GLUTAMIC ACID], for which the values for the Hepatotoxicity result in the series with Hepatotoxicity [1], with Hepatotoxicity [2] and in the series on Hepatotoxicity [3] were “no drug-induced liver injury reported”, “drug-induced liver injury reported” and “no drug-induced liver injury reported”, respectively.

As for `NC(=O)CC[C@H](N)C(=O)O` [GLUTAMINE], the Hepatotoxicity result with Hepatotoxicity [1], in the series on Hepatotoxicity [2] and with Hepatotoxicity [3] was “drug-induced liver injury reported” throughout.

As for `CCC1(c2ccccc2)CCC(=O)NC1=O` (centres undefined) [GLUTETHIMIDE], the Hepatotoxicity result is recorded as “drug-induced liver injury reported” in the series with Hepatotoxicity [1], “no drug-induced liver injury reported” with Hepatotoxicity [2] and “no drug-induced liver injury reported” in the series with Hepatotoxicity [3].

As for `COc1ccc(Cl)cc1C(=O)NCCc1ccc(S(=O)(=O)NC(=O)NC2CCCCC2)cc1` [GLYBURIDE], the Hepatotoxicity entry is “drug-induced liver injury reported” in the series on Hepatotoxicity [1], “drug-induced liver injury reported” with Hepatotoxicity [2] and “no drug-induced liver injury reported” with Hepatotoxicity [3].

Turning to `OCC(O)CO` [GLYCERIN], the Hepatotoxicity entry with Hepatotoxicity [1], in the series with Hepatotoxicity [2] and in the series with Hepatotoxicity [3] was “drug-induced liver injury reported” throughout.

On to `Cc1cc2c(C(C)C)c(O)c(O)c(C=O)c2c(O)c1-c1c(C)cc2c(C(C)C)c(O)c(O)c(C=O)c2c1O` [GOSSYPOL], for which the values for the Hepatotoxicity entry in the series on Hepatotoxicity [1], with Hepatotoxicity [2] and with Hepatotoxicity [3] were “drug-induced liver injury reported”, “drug-induced liver injury reported” and “no drug-induced liver injury reported”, respectively.

The values are drawn from ChEMBL document CHEMBL1697731, “Cheminformatics analysis of assertions mined from literature that describe drug-induced liver injury in different species” (Chem Res Toxicol, 2010).
